Measurements published in PubChem BioAssay (NCI).
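Cultured in 96-well plates, cells were exposed to test compound for 48 hours across five concentrations. TGI marks complete inhibition of growth.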

What was measured:
Test in all cases: inhibition of tumour cell growth, NCI panel, 48 h
786-0 renal = test system: 786-0 renal
A498 renal = test system: A498 renal
A549 NSCLC = test system: A549 NSCLC
ACHN renal = test system: ACHN renal
BT-549 breast = test system: BT-549 breast
CCRF-CEM leukemia = test system: CCRF-CEM leukemia
COLO 205 colon = test system: COLO 205 colon
DU-145 prostate = test system: DU-145 prostate
HCT-116 colon = test system: HCT-116 colon
HL-60(TB) leukemia = test system: HL-60(TB) leukemia
HOP-62 NSCLC = test system: HOP-62 NSCLC
HOP-92 NSCLC = test system: HOP-92 NSCLC
HS 578T breast = test system: HS 578T breast
HT29 colon = test system: HT29 colon
IGROV1 ovarian = test system: IGROV1 ovarian
K-562 leukemia = test system: K-562 leukemia
KM12 colon = test system: KM12 colon
LOX IMVI melanoma = test system: LOX IMVI melanoma
M14 melanoma = test system: M14 melanoma
MALME-3M melanoma = test system: MALME-3M melanoma
MCF7 breast = test system: MCF7 breast
MDA-MB-231 breast = test system: MDA-MB-231 breast
MDA-MB-435 = test system: MDA-MB-435
MDA-N = test system: MDA-N
MOLT-4 leukemia = test system: MOLT-4 leukemia
NCI-H226 lung = test system: NCI-H226 lung
NCI-H23 lung = test system: NCI-H23 lung
NCI-H460 lung = test system: NCI-H460 lung
NCI-H522 lung = test system: NCI-H522 lung
NCI/ADR-RES ovarian = test system: NCI/ADR-RES ovarian
OVCAR-3 ovarian = test system: OVCAR-3 ovarian
OVCAR-4 ovarian = test system: OVCAR-4 ovarian
OVCAR-5 ovarian = test system: OVCAR-5 ovarian
OVCAR-8 ovarian = test system: OVCAR-8 ovarian
PC-3 prostate = test system: PC-3 prostate
RPMI-8226 leukemia = test system: RPMI-8226 leukemia
RXF 393 renal = test system: RXF 393 renal
SF-268 CNS = test system: SF-268 CNS
SF-295 CNS = test system: SF-295 CNS
SF-539 CNS = test system: SF-539 CNS
SK-MEL-28 melanoma = test system: SK-MEL-28 melanoma
SK-MEL-5 melanoma = test system: SK-MEL-5 melanoma
SK-OV-3 ovarian = test system: SK-OV-3 ovarian
SN12C renal = test system: SN12C renal
SNB-19 CNS = test system: SNB-19 CNS
SNB-75 CNS = test system: SNB-75 CNS
SR leukemia = test system: SR leukemia
SW-620 colon = test system: SW-620 colon
T-47D breast = test system: T-47D breast
TK-10 renal = test system: TK-10 renal
U251 CNS = test system: U251 CNS
UACC-62 melanoma = test system: UACC-62 melanoma
UO-31 renal = test system: UO-31 renal

COC(NC(=O)Nc1ccc(C)cc1)(C(F)(F)F)C(F)(F)F
TGI (786-0 renal): > 100 µM | TGI (A498 renal): 90.1 µM | TGI (A549 NSCLC): > 100 µM | TGI (ACHN renal): > 100 µM | TGI (BT-549 breast): 83.5 µM | TGI (CCRF-CEM leukemia): > 100 µM | TGI (COLO 205 colon): 36.8 µM | TGI (DU-145 prostate): > 100 µM | TGI (HCT-116 colon): > 100 µM | TGI (HL-60(TB) leukemia): > 100 µM | TGI (HOP-62 NSCLC): > 100 µM | TGI (HOP-92 NSCLC): 93.3 µM | TGI (HS 578T breast): > 100 µM | TGI (HT29 colon): > 100 µM | TGI (IGROV1 ovarian): > 100 µM | TGI (K-562 leukemia): > 100 µM | TGI (KM12 colon): > 100 µM | TGI (LOX IMVI melanoma): > 100 µM | TGI (M14 melanoma): > 100 µM | TGI (MALME-3M melanoma): > 100 µM | TGI (MCF7 breast): > 100 µM | TGI (MDA-MB-231 breast): 99 µM | TGI (MDA-MB-435): > 100 µM | TGI (MDA-N): 94.6 µM | TGI (MOLT-4 leukemia): 48.6 µM | TGI (NCI-H226 lung): > 100 µM | TGI (NCI-H23 lung): 89.8 µM | TGI (NCI-H460 lung): > 100 µM | TGI (NCI-H522 lung): 60.1 µM | TGI (NCI/ADR-RES ovarian): 84.7 µM | TGI (OVCAR-3 ovarian): > 100 µM | TGI (OVCAR-4 ovarian): > 100 µM | TGI (OVCAR-5 ovarian): > 100 µM | TGI (OVCAR-8 ovarian): 78.5 µM | TGI (PC-3 prostate): > 100 µM | TGI (RPMI-8226 leukemia): 74.8 µM | TGI (RXF 393 renal): 71.7 µM | TGI (SF-268 CNS): > 100 µM | TGI (SF-295 CNS): 90.7 µM | TGI (SF-539 CNS): > 100 µM | TGI (SK-MEL-28 melanoma): > 100 µM | TGI (SK-MEL-5 melanoma): 30.6 µM | TGI (SK-OV-3 ovarian): 76.4 µM | TGI (SN12C renal): > 100 µM | TGI (SNB-19 CNS): 87.2 µM | TGI (SNB-75 CNS): > 100 µM | TGI (SR leukemia): > 100 µM | TGI (SW-620 colon): > 100 µM | TGI (T-47D breast): 97.7 µM | TGI (TK-10 renal): > 100 µM | TGI (U251 CNS): 45 µM | TGI (UACC-62 melanoma): > 100 µM | TGI (UO-31 renal): 53.6 µM
